Here are results for three compounds from patent US9169241B2, “Quinolinyloxyphenylsulfonamides” (Max-Planck-Gesellschaft Zur Forderung der Wissenschaften …, priority 2009, dated 2015).

Read-outs that look alike come from different tables or passages of the source. Some results are limits rather than exact numbers.

Series [1] deals with Hs578T. As to the kind of experiment: Wound healing migration assay. The series is classed as cell-based. Particulars: Homo sapiens, Hs-578T; HS578T cell line; Table Ib. In a few lines:
(§1)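 Compound exposure at 12.5, 6.25 and 3.125 μM, with DMSO control, on scratch-wounded monolayers (150000 cells/24 well, overnight). Wound closure imaged by microscopy, fixed with crystal violet after 48 h or 72 h depending on cell line; IC50 is the concentration giving 50% wound size between t0 and t48/t72.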

In the next series the test system is indicated cell line. As to the kind of experiment: Wound healing migration assay (Table IV). Particulars: compounds at 12.5, 6.25, 3.125 μM, 48 h-72 h. It is filed as cell-based. In outline:
as §1

Series [2] concerns Hs578T. The experiment in a line: Cell vitality assay (ATP assay, CellTiter-Glo). The series is classed as cell-based. The conditions noted are these: Homo sapiens, Hs-578T; HS578T cell line, 72 h; Table Ib; read-out: IC50 ATP-Assay HS578T after 72 h. In a few lines: (§2)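 Viability is estimated from cellular ATP after 72 h of compound treatment at 1000 cells per well. The dilution series runs 12.5, 6.25, 3.125, 1.56, 0.78, 0.39 and 0.195 μM. Half-maximal values are expressed against DMSO-treated wells.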

Series [3] concerns SF126. As to the kind of experiment: Cell vitality assay (ATP assay, CellTiter-Glo). The series is classed as cell-based. Particulars: Homo sapiens, SF-126; SF126, 72 h; Table IIa; read-out: IC50 ATP-Assay after 72 h SF126. In outline:
as §2

The test system of series [4] is A172. The experiment in a line: Cell vitality assay (ATP assay, CellTiter-Glo). Particulars: Homo sapiens, A 172; A172, 72 h; Table IIa; read-out: IC50 ATP-Assay after 72 h A172. The series is classed as cell-based. In outline:
as §2

Series [5] concerns U118. The experiment in a line: Cell vitality assay (ATP assay, CellTiter-Glo). It is filed as cell-based. The conditions noted are these: U118, 72 h; Table IIa; read-out: IC50 ATP-Assay after 72 h U118. In outline: as §2
Series [6] relates to Hs578T. The experiment in a line: Matrigel outgrowth assay/branching assay. The series is classed as cell-based. The conditions noted are these: Homo sapiens, Hs-578T; HS578T cell line; Table Ib; read-out: Total branching inhibition in Matrigel HS578T. In a few lines: (§3)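 Invasive outgrowth into a 3 mg/ml Matrigel gel is judged from images taken after 48, 72 and 96 h of exposure to 3.125, 1.56 or 0.78 μM compound, with DMSO as control. Positive means total inhibition of branching.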

Series [7] has as its system SF126. As to the kind of experiment: Matrigel outgrowth assay/branching assay. It is filed as cell-based. The conditions noted are these: Homo sapiens, SF-126, Table Vb, read-out: Total branching inhibition in Matrigel SF126. In outline:
as §3

Series [8] relates to A172. The experiment in a line: Matrigel outgrowth assay/branching assay. It is filed as cell-based. Particulars: Homo sapiens, A 172, Table Vb, read-out: Total branching inhibition in Matrigel A172. In a few lines: as §3
Series [9] concerns U118. As to the kind of experiment: Matrigel outgrowth assay/branching assay. Particulars: Table Vb, read-out: Total branching inhibition in Matrigel U118. The series is classed as cell-based. In a few lines: as §3
Where [10] appears, read: Homo sapiens, A 172, A172 cells, read-out: IC50 Wound healing Assay A172.
The mark [11] stands for this setting: Homo sapiens, SF-126, SF126 cells, read-out: IC50 Wound healing Assay SF126.
Setting [12] is: U118 cells, read-out: IC50 Wound healing Assay U118.

The compound `COc1cc2c(Oc3ccc(NS(=O)(=O)c4ccccc4C(F)(F)F)cc3F)ccnc2cc1OCCCN1CCCCC1` [Example 4, N-{3-Fluoro-4-[6-methoxy-7-(3-piperidin-1-yl-propoxy)-quinolin-4-yloxy]-phenyl}-2-trifluoromethyl-benzenesulfonamide] came in with a melting point of 173 to 175 °C. This compound also registered an IC50 with Hs578T [1] of at most 12.5 µM. The IC50 with indicated cell line (setting [10]) is at most 12.5 µM. Also, the IC50 in the series with indicated cell line (setting [11]) was at most 12.5 µM. The IC50 in the series with indicated cell line (setting [12]) is at most 12.5 µM. Further, the IC50 in the series with Hs578T [2] is at most 12.5 µM. The IC50 with SF126 [3] was at most 12.5 µM. Also, the IC50 in the series with A172 [4] was at most 12.5 µM. In the series on U118 [5], the IC50 is at most 12.5 µM. In addition, the IC50 in the series on Hs578T [6] was at most 10 µM. Besides, the IC100 in the series on SF126 [7] is at most 12.5 µM. Moreover, the IC100 in the series with A172 [8] is over 12.5 µM. In addition, the IC100 in the series with U118 [9] was at most 12.5 µM.

For `COc1cc2c(Oc3ccc(NS(=O)(=O)c4cc(F)ccc4F)cc3F)ccnc2cc1OCCCN1CCCCC1C` (stereo not drawn) [Example 151, 2,5-Difluoro-N-(3-fluoro-4-{6-methoxy-7-[3-(2-methyl-piperidin-1-yl)-propoxy]-quinolin-4-yloxy}-phenyl)-benzenesulfonamide], the melting point lay in the range of 120 to 122 °C. In the series on Hs578T [1], this compound registered an IC50 of at most 12.5 µM. In addition, the IC50 in the series on indicated cell line (setting [10]) is at most 12.5 µM. Besides, the IC50 with indicated cell line (setting [11]) is at most 12.5 µM. For the same compound, in the series on indicated cell line (setting [12]), the IC50 was at most 12.5 µM. For the same compound, the IC50 in the series on Hs578T [2] was at most 12.5 µM. For the same compound, in the series on SF126 [3], the IC50 is at most 12.5 µM. Besides, the IC50 in the series with A172 [4] is at most 12.5 µM. The IC50 in the series with U118 [5] was at most 12.5 µM. In addition, the IC50 in the series with Hs578T [6] is at most 10 µM. Moreover, in the series with SF126 [7], the IC100 was at most 12.5 µM. Further, the IC100 in the series on A172 [8] is at most 12.5 µM. For the same compound, the IC100 with U118 [9] is at most 12.5 µM.

Regarding `COc1cc2c(Oc3ccc(NS(=O)(=O)c4cc(F)ccc4F)cc3F)ccnc2cc1OCCCN(C)C` [Example 177, N-{4-[7-(3-Dimethylamino-propoxy)-6-methoxy-quinolin-4-yloxy]-3-fluoro-phenyl}-2,5-difluoro-benzenesulfonamide], the melting point lay in the range of 108 to 110 °C. In addition, the IC50 in the series with Hs578T [1] was at most 12.5 µM. Besides, the IC50 in the series with indicated cell line (setting [10]) is at most 12.5 µM. The IC50 in the series on indicated cell line (setting [11]) is at most 12.5 µM. In addition, in the series with indicated cell line (setting [12]), the IC50 was at most 12.5 µM. In the series with Hs578T [2], the IC50 was at most 12.5 µM. In addition, the IC50 in the series on SF126 [3] was at most 12.5 µM. The IC50 with A172 [4] is at most 12.5 µM. Moreover, the IC50 in the series on U118 [5] was at most 12.5 µM. The IC50 with Hs578T [6] is at most 10 µM. In addition, in the series with SF126 [7], the IC100 is at most 12.5 µM. Besides, the IC100 in the series with A172 [8] was at most 12.5 µM. Also, the IC100 with U118 [9] was at most 12.5 µM.
